Measurements: article PMC7271024, “N1-Benzofused Modification of Fluoroquinolones Reduces Activity Against Gram-Negative Bacteria” (ACS Omega, 2020)
≈ marks a conversion by molar mass, not a printed value. One block for each compound: values may come before it.

Assays:
K. pneumoniae M6 = assay: MIC, microdilution broth method; format: cell-based, Klebsiella pneumoniae; conditions: for MIC: Klebsiella pneumoniae; for potentiation of MIC by PMBN: MIC –PMBN vs +PMBN
K. pneumoniae NCTC 13368 = assay: MIC, microdilution broth method; format: cell-based, Klebsiella pneumoniae; conditions: for MIC: Klebsiella pneumoniae; for potentiation of MIC by PMBN: MIC –PMBN vs +PMBN
Procedure: (§1) The antibacterial activities of the synthesized fluoroquinolones were evaluated against a panel of Gram-negative pathogens including K. pneumoniae (NCTC 13368, M6), Acinetobacter baumannii (AYE, ATCC 17978), Pseudomonas aeruginosa (PAO1, NCTC 13437), and Escherichia coli (NCTC 12923, LEC001). The ability of molecules to permeate the Gram-negative outer membrane was investigated by adding membrane permeabilizer polymyxin B nonapeptide (PMBN) at sub-inhibitory concentrations (Table 2). Phenylalanine–arginine β-naphthylamide (PAβN) was used to investigate efflux of compounds by resistance–nodulation–division (RND)-family efflux pumps (Table 3).
(§2) Minimal inhibitory concentrations (MICs) were determined using the microdilution broth method. Briefly, compounds were added to the first two columns of a 96-well plate and diluted two-fold down the plate in tryptic soy broth. Overnight cultures of bacteria were then adjusted to a concentration of 1 × 10^6 CFU/mL and added to each well for a final concentration of 5 × 10^5 CFU/mL.

A. baumannii ATCC 17978 = assay: MIC, microdilution broth method; format: cell-based, Acinetobacter baumannii; conditions: for MIC: Acinetobacter baumannii; for potentiation of MIC by PMBN: MIC –PMBN vs +PMBN
A. baumannii AYE = assay: MIC, microdilution broth method; format: cell-based, Acinetobacter baumannii; conditions: for MIC: Acinetobacter baumannii
Procedure: as §1, §2

P. aeruginosa PAO1 = assay: MIC, microdilution broth method; format: cell-based, Pseudomonas aeruginosa; conditions: Pseudomonas aeruginosa
P. aeruginosa NCTC 13437 = assay: MIC, microdilution broth method; format: cell-based, Pseudomonas aeruginosa; conditions: Pseudomonas aeruginosa
Procedure: as §1, §2

E. coli NCTC 12923 = assay: MIC, microdilution broth method; format: cell-based, Escherichia coli; conditions: for MIC: Escherichia coli
E. coli LEC001 = assay: MIC, microdilution broth method; format: cell-based, Escherichia coli; conditions: for MIC: Escherichia coli
Procedure: as §1, §2

[1] = system: panel of Gram-negative pathogens; assay: MIC panel, statements across strains; format: cell-based, K. pneumoniae, A. baumannii, P. aeruginosa, E. coli; conditions: versus ciprofloxacin
Procedure: as §1, §2

E. coli DNA gyrase = target: T1, E. coli DNA gyrase (Escherichia coli, UniProt P0AES4+P0AES6); assay: Cell-free gyrase supercoiling inhibition assay; format: biochemical; conditions: purified enzyme, cell-free supercoiling kit
T1 construct: purchased Inspiralis (Norwich, UK) K0001

P. aeruginosa DNA gyrase = target: T2, P. aeruginosa DNA gyrase (Pseudomonas aeruginosa, UniProt P48372+Q9I7C2); assay: Cell-free gyrase supercoiling inhibition assay; format: biochemical; conditions: purified enzyme, cell-free supercoiling kit
T2 construct: purchased Inspiralis (Norwich, UK) PAS001
T2 sequence (Q9I7C2 whole entry): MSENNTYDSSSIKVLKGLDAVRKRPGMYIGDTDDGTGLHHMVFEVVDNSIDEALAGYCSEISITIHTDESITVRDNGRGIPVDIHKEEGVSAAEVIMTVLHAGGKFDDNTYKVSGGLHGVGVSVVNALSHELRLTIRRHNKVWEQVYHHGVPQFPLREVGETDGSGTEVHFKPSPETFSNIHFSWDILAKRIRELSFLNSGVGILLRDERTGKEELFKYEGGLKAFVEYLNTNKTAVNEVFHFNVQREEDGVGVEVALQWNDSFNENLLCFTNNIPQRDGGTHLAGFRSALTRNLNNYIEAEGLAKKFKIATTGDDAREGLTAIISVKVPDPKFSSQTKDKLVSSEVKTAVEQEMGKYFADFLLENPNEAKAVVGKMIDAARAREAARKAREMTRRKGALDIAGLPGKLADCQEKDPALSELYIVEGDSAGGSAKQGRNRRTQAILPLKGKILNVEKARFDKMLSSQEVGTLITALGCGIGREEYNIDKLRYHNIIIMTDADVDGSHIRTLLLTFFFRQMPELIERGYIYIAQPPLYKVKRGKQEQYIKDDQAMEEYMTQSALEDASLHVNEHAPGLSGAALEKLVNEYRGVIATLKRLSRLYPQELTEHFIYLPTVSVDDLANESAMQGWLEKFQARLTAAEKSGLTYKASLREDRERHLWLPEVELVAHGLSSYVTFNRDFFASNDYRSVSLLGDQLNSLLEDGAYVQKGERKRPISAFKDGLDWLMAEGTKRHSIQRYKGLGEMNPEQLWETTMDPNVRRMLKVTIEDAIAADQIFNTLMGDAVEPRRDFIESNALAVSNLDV
T2 sequence (P48372 whole entry): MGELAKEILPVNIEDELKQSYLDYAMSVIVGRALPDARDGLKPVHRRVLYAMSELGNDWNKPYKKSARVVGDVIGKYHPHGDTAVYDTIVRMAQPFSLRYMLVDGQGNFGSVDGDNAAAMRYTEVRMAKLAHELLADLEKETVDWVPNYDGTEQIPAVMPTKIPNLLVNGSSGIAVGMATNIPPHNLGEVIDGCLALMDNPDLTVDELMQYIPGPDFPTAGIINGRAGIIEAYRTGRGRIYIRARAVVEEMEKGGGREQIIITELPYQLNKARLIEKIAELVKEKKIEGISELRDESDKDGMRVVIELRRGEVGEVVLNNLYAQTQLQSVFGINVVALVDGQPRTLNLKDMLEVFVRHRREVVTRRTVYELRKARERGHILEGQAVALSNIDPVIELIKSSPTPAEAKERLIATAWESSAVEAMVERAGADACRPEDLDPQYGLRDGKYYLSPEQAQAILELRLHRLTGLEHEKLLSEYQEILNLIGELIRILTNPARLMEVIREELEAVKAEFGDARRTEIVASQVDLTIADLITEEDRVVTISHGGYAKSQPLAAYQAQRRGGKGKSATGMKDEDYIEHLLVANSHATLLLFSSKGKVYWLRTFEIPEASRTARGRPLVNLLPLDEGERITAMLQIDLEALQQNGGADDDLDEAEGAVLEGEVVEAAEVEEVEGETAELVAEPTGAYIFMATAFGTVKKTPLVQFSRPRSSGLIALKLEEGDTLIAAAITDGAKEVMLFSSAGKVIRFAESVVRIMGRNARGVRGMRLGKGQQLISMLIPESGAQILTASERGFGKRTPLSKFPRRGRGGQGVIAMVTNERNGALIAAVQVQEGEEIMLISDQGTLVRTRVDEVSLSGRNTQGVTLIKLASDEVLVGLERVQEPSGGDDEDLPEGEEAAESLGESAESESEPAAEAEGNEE

[2] = Solubility as observed in the MIC and enzyme experiments; format: physicochemical; conditions: S. aureus DNA gyrase / topoisomerase IV assay media, at the high concentrations required
Procedure: In vitro activity assays using purified S. aureus, E. coli and P. aeruginosa DNA gyrase, and S. aureus topoisomerase IV enzymes were performed in order to evaluate whether the gains in inhibitory activity predicted for the benzofused compounds were accurate. The benzothiophene-containing 6e was selected as a representative compound for the purposes of this experiment. […].
A general correlation between N1 substituent hydrophobicity and activity is observed; […].

[3] = M6, +PMBN (30 μg/mL), ciprofloxacin-sensitive strain (S)
[4] = M6, –PMBN, ciprofloxacin-sensitive strain (S)
[5] = NCTC13368, +PMBN (30 μg/mL), ciprofloxacin-resistant strain (R)
[6] = NCTC13368, –PMBN, ciprofloxacin-resistant strain (R)
[7] = ATCC17978, +PMBN (30 μg/mL), ciprofloxacin-sensitive strain (S)
[8] = ATCC17978, –PMBN, ciprofloxacin-sensitive strain (S)
[9] = +PMBN (30 μg/mL), ciprofloxacin-resistant strain (R)
[10] = –PMBN, ciprofloxacin-resistant strain (R)
[11] = PAO1, +PMBN (30 μg/mL), ciprofloxacin-sensitive strain (S)
[12] = PAO1, –PMBN, ciprofloxacin-sensitive strain (S)
[13] = NCTC13437, +PMBN (30 μg/mL), ciprofloxacin-resistant strain (R)
[14] = NCTC13437, –PMBN, ciprofloxacin-resistant strain (R)
[15] = NCTC12923, +PMBN (30 μg/mL), ciprofloxacin-sensitive strain (S)
[16] = NCTC12923, –PMBN, ciprofloxacin-sensitive strain (S)
[17] = LEC001, +PMBN (30 μg/mL), ciprofloxacin-resistant strain (R)
[18] = LEC001, –PMBN, ciprofloxacin-resistant strain (R)
[19] = RND-family efflux inhibitor PAβN
[20] = PAβN, text names A. baumannii only

MIC (K. pneumoniae M6; [3]): 0.5 µg/mL (≈ 1.23 µM)
MIC (K. pneumoniae M6; [4]): 1 to 2 µg/mL (≈ 2.45 to 4.91 µM)
potentiation of MIC by PMBN (K. pneumoniae M6): 2–4 fold
MIC (K. pneumoniae NCTC 13368; [5]): 2 µg/mL (≈ 4.91 µM)
MIC (K. pneumoniae NCTC 13368; [6]): 16 µg/mL (≈ 39.3 µM)
potentiation of MIC by PMBN (K. pneumoniae NCTC 13368): 4–8 fold
MIC (A. baumannii ATCC 17978; [7]): 1 µg/mL (≈ 2.45 µM)
MIC (A. baumannii ATCC 17978; [8]): 2 µg/mL (≈ 4.91 µM)
potentiation of MIC by PMBN (A. baumannii ATCC 17978): 2 fold
MIC (A. baumannii AYE; [9]): > 32 µg/mL
MIC (A. baumannii AYE; [10]): > 32 µg/mL
MIC (P. aeruginosa PAO1; [11]): 0.5 µg/mL (≈ 1.23 µM)
MIC (P. aeruginosa PAO1; [12]): 8 to 16 µg/mL (≈ 19.6 to 39.3 µM)
MIC (P. aeruginosa NCTC 13437; [13]): 32 µg/mL (≈ 78.5 µM)
MIC (P. aeruginosa NCTC 13437; [14]): > 32 µg/mL
MIC (E. coli NCTC 12923; [15]): 0.25 µg/mL (≈ 0.614 µM)
MIC (E. coli NCTC 12923; [16]): 1 µg/mL (≈ 2.45 µM)
MIC (E. coli LEC001; [17]): > 32 µg/mL
MIC (E. coli LEC001; [18]): > 32 µg/mL
Structure (SMILES): O=C(O)c1cn(-c2cccc3ccoc23)c2cc(N3CCNCC3)c(F)cc2c1=O [Compound 6d]
antibacterial activity [1]: limited activity

Structure (SMILES): O=C(O)c1cn(-c2cccc3ccsc23)c2cc(N3CCNCC3)c(F)cc2c1=O [Compound 6e]
MIC (K. pneumoniae M6; M6, +PAβN (25 μg/mL), Table 3, strain S): 1 µg/mL (≈ 2.36 µM)
MIC (K. pneumoniae M6; [3]): 2 µg/mL (≈ 4.72 µM)
MIC (K. pneumoniae M6; M6, –PAβN, Table 3, strain S): 8 µg/mL (≈ 18.9 µM)
MIC (K. pneumoniae M6; [4]): 8 µg/mL (≈ 18.9 µM)
potentiation of MIC by PMBN (K. pneumoniae M6): 2–4 fold
effect of PAβN on MIC (K. pneumoniae M6; [19]): significant potentiation
MIC (K. pneumoniae NCTC 13368; NCTC13368, +PAβN (25 μg/mL), Table 3, strain R): 4 µg/mL (≈ 9.45 µM)
MIC (K. pneumoniae NCTC 13368; [5]): 8 µg/mL (≈ 18.9 µM)
MIC (K. pneumoniae NCTC 13368; NCTC13368, –PAβN, Table 3, strain R): > 32 µg/mL
MIC (K. pneumoniae NCTC 13368; [6]): 32 µg/mL (≈ 75.6 µM)
potentiation of MIC by PMBN (K. pneumoniae NCTC 13368): 4–8 fold
effect of PAβN on MIC (K. pneumoniae NCTC 13368; [19]): significant potentiation
MIC (A. baumannii ATCC 17978; ATCC17978, +PAβN (25 μg/mL), Table 3, strain S): 4 µg/mL (≈ 9.45 µM)
MIC (A. baumannii ATCC 17978; [7]): 4 µg/mL (≈ 9.45 µM)
MIC (A. baumannii ATCC 17978; ATCC17978, –PAβN, Table 3, strain S): 4 µg/mL (≈ 9.45 µM)
MIC (A. baumannii ATCC 17978; [8]): 8 µg/mL (≈ 18.9 µM)
potentiation of MIC by PMBN (A. baumannii ATCC 17978): 2 fold
effect of PAβN on MIC (A. baumannii ATCC 17978; [20]): Neither ciprofloxacin nor compound 6e showed any difference in MIC
MIC (A. baumannii AYE; +PAβN (25 μg/mL), Table 3, strain R): > 32 µg/mL
MIC (A. baumannii AYE; [9]): > 32 µg/mL
MIC (A. baumannii AYE; –PAβN, Table 3, strain R): > 32 µg/mL
MIC (A. baumannii AYE; [10]): > 32 µg/mL
effect of PAβN on MIC (A. baumannii AYE; [20]): Neither ciprofloxacin nor compound 6e showed any difference in MIC
MIC (P. aeruginosa PAO1; PAO1, +PAβN (25 μg/mL), Table 3, strain S): 2 µg/mL (≈ 4.72 µM)
MIC (P. aeruginosa PAO1; [11]): 2 µg/mL (≈ 4.72 µM)
MIC (P. aeruginosa PAO1; PAO1, –PAβN, Table 3, strain S): 32 µg/mL (≈ 75.6 µM)
MIC (P. aeruginosa PAO1; [12]): 32 µg/mL (≈ 75.6 µM)
MIC (P. aeruginosa NCTC 13437; NCTC13437, +PAβN (25 μg/mL), Table 3, strain R): > 32 µg/mL
MIC (P. aeruginosa NCTC 13437; [13]): 32 µg/mL (≈ 75.6 µM)
MIC (P. aeruginosa NCTC 13437; NCTC13437, –PAβN, Table 3, strain R): > 32 µg/mL
MIC (P. aeruginosa NCTC 13437; [14]): > 32 µg/mL
MIC (E. coli NCTC 12923; NCTC12923, +PAβN (25 μg/mL), Table 3, strain S): 0.25 µg/mL (≈ 0.59 µM)
MIC (E. coli NCTC 12923; [15]): 1 µg/mL (≈ 2.36 µM)
MIC (E. coli NCTC 12923; NCTC12923, –PAβN, Table 3, strain S): 0.25 to 2 µg/mL (≈ 0.59 to 4.72 µM)
MIC (E. coli NCTC 12923; [16]): 4 µg/mL (≈ 9.45 µM)
effect of PAβN on MIC (E. coli NCTC 12923; PAβN, text names E. coli only): No effect
MIC (E. coli LEC001; LEC001, +PAβN (25 μg/mL), Table 3, strain R): > 32 µg/mL
MIC (E. coli LEC001; [17]): > 32 µg/mL
MIC (E. coli LEC001; LEC001, –PAβN, Table 3, strain R): > 32 µg/mL
MIC (E. coli LEC001; [18]): > 32 µg/mL
effect of PAβN on MIC (E. coli LEC001; PAβN, text names E. coli only): No effect
IC50 (E. coli DNA gyrase): 6.38 µM
IC50 (P. aeruginosa DNA gyrase): 15.8 µM
antibacterial activity [1]: limited activity
solubility in assay media [2]: poorly soluble
